Measurements taken from publication PMC10423561, “Effects of the CYP3A inhibitors, voriconazole, itraconazole, and fluconazole on the pharmacokinetics of osimertinib in rats” (PeerJ, 2023).
Values joined by “and” are separate entries in the source; they are usually repeats but may differ in a detail not shown here. Identical values can stand only once.

Test: Stability of OSIM in rat plasma QC samples (bench-top, autosampler, freeze-thaw, long-term)
Assay type: in vitro ADME
Settings: for B-LQC RE, AVERAGE / B-LQC measured concentration, AVERAGE / B-LQC RE / B-LQC measured concentration: nominal 5.02 ng/ml; for B-LQC RE, AVERAGE / B-LQC measured concentration, AVERAGE / B-MQC RE, AVERAGE / B-MQC measured concentration, AVERAGE / B-HQC RE, AVERAGE / B-HQC measured concentration, AVERAGE: average of 4; for B-LQC RE / B-LQC measured concentration / B-MQC RE / B-MQC measured concentration / B-HQC RE / B-HQC measured concentration: single replicates; for B-MQC RE, AVERAGE / B-MQC measured concentration, AVERAGE / B-MQC RE / B-MQC measured concentration: nominal 200.8 ng/ml; for B-HQC RE, AVERAGE / B-HQC measured concentration, AVERAGE / B-HQC RE / B-HQC measured concentration: nominal 401.6 ng/ml; for Relative stability: n=4
Method: Bench-top stability was tested by placing the pretreatment samples at room temperature ([…]) for 6 h, autosampler stability was assessed by placing the prepared sample in the injector for 24 h, freeze-thaw stability was determined to be adequate over at least three cycles (from −30 °C to 25 °C), and long-term stability was assessed to be at least one month before sample preparation (at −30 °C for 30 d). For all stability results, the average %RE of OSIM ranged from −11.04% to 7.48% across the three QC concentrations, with the %CV less than 6.42% (Table S4).

C=CC(=O)Nc1cc(Nc2nccc(-c3cn(C)c4ccccc34)n2)c(OC)cc1N(C)CCN(C)C [OSIM, Osimertinib]
B-LQC RE, AVERAGE (-30℃(30 day)): -11.04%
B-LQC measured concentration, AVERAGE (-30℃(30 day)): 4.47 ng/mL
B-LQC RE (-30℃(30 day)): -11.88% and -13.96% and -8.90% and -9.43%
B-LQC measured concentration (-30℃(30 day)): 4.42 ng/mL and 4.32 ng/mL and 4.57 ng/mL and 4.55 ng/mL
B-MQC RE, AVERAGE (-30℃(30 day)): -0.87%
B-MQC measured concentration, AVERAGE (-30℃(30 day)): 199.05 ng/mL
B-MQC RE (-30℃(30 day)): 4.20% and -2.59% and -1.56% and -3.53%
B-MQC measured concentration (-30℃(30 day)): 209.23 ng/mL and 195.60 ng/mL and 197.67 ng/mL and 193.72 ng/mL
B-HQC RE, AVERAGE (-30℃(30 day)): -1.09%
B-HQC measured concentration, AVERAGE (-30℃(30 day)): 397.22 ng/mL
B-HQC RE (-30℃(30 day)): -0.61% and 0.80% and -5.35%
B-HQC measured concentration (-30℃(30 day)): 399.15 ng/mL and 404.80 ng/mL and 380.13 ng/mL
B-LQC RE, AVERAGE (AUTO(24h)): -6.71%
B-LQC measured concentration, AVERAGE (AUTO(24h)): 4.68 ng/mL
B-LQC RE (AUTO(24h)): -12.78% and -6.93% and -1.98% and -5.16%
B-LQC measured concentration (AUTO(24h)): 4.38 ng/mL and 4.67 ng/mL and 4.92 ng/mL and 4.76 ng/mL
B-MQC RE, AVERAGE (AUTO(24h)): -1.60%
B-MQC measured concentration, AVERAGE (AUTO(24h)): 197.59 ng/mL
B-MQC RE (AUTO(24h)): -1.66% and 4.91% and -1.78% and -7.87%
B-MQC measured concentration (AUTO(24h)): 197.46 ng/mL and 210.66 ng/mL and 197.22 ng/mL and 184.99 ng/mL
B-HQC RE, AVERAGE (AUTO(24h)): -4.24%
B-HQC measured concentration, AVERAGE (AUTO(24h)): 384.55 ng/mL
B-HQC RE (AUTO(24h)): -2.81% and -5.55% and -7.95% and -0.66%
B-HQC measured concentration (AUTO(24h)): 390.30 ng/mL and 379.32 ng/mL and 369.66 ng/mL and 398.95 ng/mL
B-LQC RE, AVERAGE (ROOM(6h)): 7.48%
B-LQC measured concentration, AVERAGE (ROOM(6h)): 5.40 ng/mL
B-LQC RE (ROOM(6h)): 11.63% and 8.45% and 4.43% and 5.39%
B-LQC measured concentration (ROOM(6h)): 5.60 ng/mL and 5.44 ng/mL and 5.24 ng/mL and 5.29 ng/mL
B-MQC RE, AVERAGE (ROOM(6h)): 5.16%
B-MQC measured concentration, AVERAGE (ROOM(6h)): 211.16 ng/mL
B-MQC RE (ROOM(6h)): 7.61% and 11.08% and 3.27% and -1.32%
B-MQC measured concentration (ROOM(6h)): 216.07 ng/mL and 223.04 ng/mL and 207.36 ng/mL and 198.15 ng/mL
B-HQC RE, AVERAGE (ROOM(6h)): -3.51%
B-HQC measured concentration, AVERAGE (ROOM(6h)): 387.49 ng/mL
B-HQC RE (ROOM(6h)): -6.10% and -7.91% and 2.69% and -2.75%
B-HQC measured concentration (ROOM(6h)): 377.12 ng/mL and 369.84 ng/mL and 412.42 ng/mL and 390.57 ng/mL
B-LQC RE, AVERAGE (after RTF(-30℃30 day)): 6.03%
B-LQC measured concentration, AVERAGE (after RTF(-30℃30 day)): 5.32 ng/mL
B-LQC RE (after RTF(-30℃30 day)): -1.95% and 2.78% and 10.68% and 12.61%
B-LQC measured concentration (after RTF(-30℃30 day)): 4.92 ng/mL and 5.16 ng/mL and 5.56 ng/mL and 5.65 ng/mL
B-MQC RE, AVERAGE (after RTF(-30℃30 day)): -2.85%
B-MQC measured concentration, AVERAGE (after RTF(-30℃30 day)): 195.09 ng/mL
B-MQC RE (after RTF(-30℃30 day)): -3.40% and 0.97% and -3.10% and -5.85%
B-MQC measured concentration (after RTF(-30℃30 day)): 193.98 ng/mL and 202.74 ng/mL and 194.57 ng/mL and 189.05 ng/mL
B-HQC RE, AVERAGE (after RTF(-30℃30 day)): -9.46%
B-HQC measured concentration, AVERAGE (after RTF(-30℃30 day)): 363.62 ng/mL
B-HQC RE (after RTF(-30℃30 day)): -9.22% and -10.28% and -11.32% and -7.01%
B-HQC measured concentration (after RTF(-30℃30 day)): 364.57 ng/mL and 360.31 ng/mL and 356.15 ng/mL and 373.44 ng/mL
Relative stability (prepared sample in autosampler for 24 h, range over LQC/MQC/HQC): 94.15-103.09%
Relative stability (rat plasma, long-term at −30 °C for 30 days, range over LQC/MQC/HQC): 88.96-98.91%
Relative stability (rat plasma, room temperature for 6 h, range over LQC/MQC/HQC (5, 200, 400 ng/mL)): 96.49-107.48%
Relative stability (rat plasma, three freeze-thaw cycles (−30 °C to 25 °C), range over LQC/MQC/HQC): 90.54-106.03%
